Measured values published in article PMC12377202, “Design, synthesis, and cytotoxic evaluation of quinazoline-based derivatives as VEGER-2 inhibitors: comparative study against EGFR kinase activity, induction of apoptosis, and molecular docking study” (RSC Advances, 2025).
≈ marks a conversion by molar mass, not a printed value. Read-outs that look alike come from different tables or passages of the source. Values belong to the compound of their own block, whether it stands above or below them.

Assays:
IL-6R = IL-6R level in HepG-2 cells; type: cell-based, human; conditions: control 44.10
Experimental: (§1) All synthesized compounds were tested at their cytotoxic concentrations in HepG-2 cells for analysis of gene expression levels of apoptotic markers caspase-3, caspase-9, TNF-α, and IL-6 proteins, and only two active compounds were tested for BAX and Bcl-2 proteins.
(§2) through Flow cytometric analysis.
(§3) Pellets were collected again and incubated with
(§4) Total RNA from vehicle-treated
(§5) (Thermo Scientific, USA).
(§6) All experiments were performed in […]

VEGFR-2 = VEGFR-2 (Homo sapiens, UniProt P35968); assay: In vitro VEGFR-2 inhibitory assay (ELISA kit); conditions: VEGFR-2 kinase
Chain of VEGFR-2 (P35968 20-1356): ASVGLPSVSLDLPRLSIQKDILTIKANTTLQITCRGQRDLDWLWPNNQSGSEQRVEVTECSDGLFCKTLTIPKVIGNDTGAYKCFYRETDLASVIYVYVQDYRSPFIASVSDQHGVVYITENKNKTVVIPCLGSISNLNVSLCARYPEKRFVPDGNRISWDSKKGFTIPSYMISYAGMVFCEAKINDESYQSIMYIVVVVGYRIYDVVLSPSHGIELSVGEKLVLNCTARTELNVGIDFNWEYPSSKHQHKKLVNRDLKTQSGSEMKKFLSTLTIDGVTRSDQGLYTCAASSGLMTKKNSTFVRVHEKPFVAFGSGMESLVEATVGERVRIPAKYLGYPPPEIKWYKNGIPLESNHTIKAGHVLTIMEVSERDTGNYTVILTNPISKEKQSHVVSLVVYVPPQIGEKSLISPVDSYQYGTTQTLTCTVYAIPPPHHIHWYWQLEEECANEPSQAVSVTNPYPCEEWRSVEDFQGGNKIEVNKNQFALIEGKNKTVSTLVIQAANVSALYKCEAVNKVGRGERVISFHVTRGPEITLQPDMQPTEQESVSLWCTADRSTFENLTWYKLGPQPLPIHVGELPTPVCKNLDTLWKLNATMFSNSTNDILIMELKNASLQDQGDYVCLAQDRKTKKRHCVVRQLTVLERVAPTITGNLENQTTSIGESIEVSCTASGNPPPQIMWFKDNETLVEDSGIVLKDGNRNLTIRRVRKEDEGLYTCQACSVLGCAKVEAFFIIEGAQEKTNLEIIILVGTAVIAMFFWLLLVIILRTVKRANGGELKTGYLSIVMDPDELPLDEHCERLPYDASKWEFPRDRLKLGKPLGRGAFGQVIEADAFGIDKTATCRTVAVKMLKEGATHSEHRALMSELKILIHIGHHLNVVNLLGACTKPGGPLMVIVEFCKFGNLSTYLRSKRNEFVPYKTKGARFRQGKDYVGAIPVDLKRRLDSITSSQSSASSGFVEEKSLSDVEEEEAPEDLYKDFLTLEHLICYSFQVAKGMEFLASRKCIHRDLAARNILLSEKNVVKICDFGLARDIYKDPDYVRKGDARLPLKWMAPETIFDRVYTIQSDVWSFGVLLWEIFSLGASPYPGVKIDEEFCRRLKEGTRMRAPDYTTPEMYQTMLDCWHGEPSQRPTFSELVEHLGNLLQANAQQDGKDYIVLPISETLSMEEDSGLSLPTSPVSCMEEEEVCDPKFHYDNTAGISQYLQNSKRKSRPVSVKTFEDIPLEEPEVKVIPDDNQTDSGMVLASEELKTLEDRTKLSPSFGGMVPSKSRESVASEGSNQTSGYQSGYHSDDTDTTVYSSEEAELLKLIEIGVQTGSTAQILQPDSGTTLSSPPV

caspase-3 = assay: Caspase-3 expression level in HepG-2 cells; type: cell-based, human; conditions: for Caspase-3 ± SE: HepG-2, at IC50 concentrations, control 0.460
Experimental: as §1, §2, §3, §4, §5, §6

BAX = BAX gene expression in HepG-2 cells; type: cell-based, human
Experimental: as §1, §2, §3, §4, §5, §6

EGFR = EGFR (Homo sapiens, UniProt P00533); assay: EGFR kinase inhibition assay (ELISA kit)
Chain of EGFR (P00533 25-1210): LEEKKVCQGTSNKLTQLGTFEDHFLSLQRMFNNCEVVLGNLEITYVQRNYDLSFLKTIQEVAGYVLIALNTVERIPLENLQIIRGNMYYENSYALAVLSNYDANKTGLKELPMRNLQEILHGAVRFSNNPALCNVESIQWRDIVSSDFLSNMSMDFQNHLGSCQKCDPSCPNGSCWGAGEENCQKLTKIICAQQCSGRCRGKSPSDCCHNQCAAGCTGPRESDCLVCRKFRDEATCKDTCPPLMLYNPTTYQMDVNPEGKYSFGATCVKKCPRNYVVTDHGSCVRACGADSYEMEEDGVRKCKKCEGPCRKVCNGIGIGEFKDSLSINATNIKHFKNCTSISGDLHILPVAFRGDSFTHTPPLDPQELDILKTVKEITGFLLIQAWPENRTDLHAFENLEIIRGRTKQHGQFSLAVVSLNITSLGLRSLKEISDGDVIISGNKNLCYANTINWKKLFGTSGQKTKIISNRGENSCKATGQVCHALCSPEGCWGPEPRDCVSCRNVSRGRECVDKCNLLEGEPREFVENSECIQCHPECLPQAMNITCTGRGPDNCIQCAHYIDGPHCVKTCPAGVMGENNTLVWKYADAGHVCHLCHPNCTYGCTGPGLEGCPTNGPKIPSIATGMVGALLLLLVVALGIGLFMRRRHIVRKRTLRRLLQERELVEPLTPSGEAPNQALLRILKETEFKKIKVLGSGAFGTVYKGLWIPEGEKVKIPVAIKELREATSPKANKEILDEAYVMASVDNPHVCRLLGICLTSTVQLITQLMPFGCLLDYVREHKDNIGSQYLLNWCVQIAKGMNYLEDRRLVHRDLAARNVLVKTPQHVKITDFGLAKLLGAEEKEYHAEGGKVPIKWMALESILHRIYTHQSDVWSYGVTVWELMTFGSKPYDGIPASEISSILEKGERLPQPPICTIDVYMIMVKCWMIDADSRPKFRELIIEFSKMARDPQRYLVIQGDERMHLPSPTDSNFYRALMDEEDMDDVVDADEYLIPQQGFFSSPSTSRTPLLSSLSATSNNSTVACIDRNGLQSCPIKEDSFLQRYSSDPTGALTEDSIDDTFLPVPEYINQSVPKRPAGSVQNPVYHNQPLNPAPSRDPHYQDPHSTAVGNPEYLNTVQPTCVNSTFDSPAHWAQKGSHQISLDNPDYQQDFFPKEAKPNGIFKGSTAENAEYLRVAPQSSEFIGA

Bcl-2 = Bcl-2 gene expression in HepG-2 cells; type: cell-based, human
Experimental: as §1, §2, §3, §4, §5, §6

caspase-9 = assay: Caspase-9 expression level in HepG-2 cells; type: cell-based, human; conditions: for Caspase-9 ± SE: HepG-2, at IC50 concentrations, control 11.01
Experimental: as §1, §2, §3, §4, §5, §6

BAX/Bcl-2 = BAX/Bcl-2 ratio in HepG-2 cells; type: cell-based, human
Experimental: as §1, §2, §3, §4, §5, §6

K-562 = assay: MTT anti-proliferative assay, K-562; type: cell-based, human; conditions: Homo sapiens, K562
MCF-7 [1] = assay: MTT anti-proliferative assay, MCF-7; type: cell-based, human; conditions: Homo sapiens, MCF7
HepG-2 = assay: MTT anti-proliferative assay, HepG-2; type: cell-based, human; conditions: Homo sapiens, HepG2
TNF-alpha = TNF-alpha level in HepG-2 cells; type: cell-based, human; conditions: control 43.48
Experimental: as §1, §2, §3, §4, §5, §6

PC3 = conditions: cited from earlier work
MCF-7 [2] = conditions: cited from earlier work
VEGFR-2 kinase = conditions: cited from earlier work
HepG2 = conditions: cited from earlier work
WI-38 = conditions: read-out: IC50 normal WI-38 cells; cited from earlier work

Activity % (VEGFR-2; HepG2): 14.760% | Inhibition % (VEGFR-2; HepG2): 85.240% | Activity % (VEGFR-2; K-562): 35.983% | Inhibition % (VEGFR-2; K-562): 64.017% | Activity % (VEGFR-2; MCF7): 19.964% | Inhibition % (VEGFR-2; MCF7): 80.036% | Activity % (EGFR; HepG2): 16.297% | Inhibition % (EGFR; HepG2): 83.703% | Activity % (EGFR; K-562): 21.954% | Inhibition % (EGFR; K-562): 78.046% | Activity % (EGFR; MCF7): 19.563% | Inhibition % (EGFR; MCF7): 80.437%
SMILES: O=C(Cn1cnc2cc([N+](=O)[O-])ccc2c1=O)Nc1ccccc1 [9a, 2-(7-Nitro-4-oxoquinazolin-3(4H)-yl)-N-phenylacetamide]
IL-6R ± SE (IL-6R; HepG-2, at IC50 concentrations): 26.0 ± 0.97 ng/L | IL-6 ±SE (IL-6R; raw data, HepG2): 14.73 ng/L | Caspase-3 ± SE (caspase-3): 0.98 ± 0.04 ng/mL | Caspase-3 ± SE (caspase-3; listed as N1): 0.98 ng/mL | caspase-3 expression level, fold increase (caspase-3; HepG-2, vs control cells): 2.1 fold | fold increase in BAX expression level (BAX; HepG-2, vs control): 6 fold | BAX expression level (BAX; HepG-2, control 0.44): 2.65 fold change | Gene expression (fold change) BAX (BAX; HepG-2, control 0.4448): 2.6533 ± 0.40 fold change | fold reduction in Bcl-2 expression level (Bcl-2; HepG-2, vs control): 2.8 fold | Bcl-2 expression level (Bcl-2; HepG-2, control 3.49): 1.23 fold change | Gene expression (fold change) Bcl-2 (Bcl-2; HepG-2, control 3.4983): 1.2368 ± 0.30 fold change | Caspase-9 ± SE (caspase-9): 30.57 ± 3.39 ng/L | Caspase-9 ± SE (caspase-9; listed as N1): 30.57 ng/L | caspase-9 expression level, fold increase (caspase-9; HepG-2, vs control cells): 2.77 fold | Gene expression (fold change) BAX/Bcl-2 ratio (BAX/Bcl-2; control 0.1260): 2.1544 ± 0.96 | BAX/Bcl-2 ratio (BAX/Bcl-2; control […]): 2.15 | viability at 0.195 µmol (K-562; K-562, 0.195 umol): 66.6% | cytotoxicity at 0.195 µmol (K-562; K-562, 0.195 umol, read-out: Toxicity %): 33.4% | viability at 0.391 µmol (K-562; K-562, 0.391 umol): 49.6% | cytotoxicity at 0.391 µmol (K-562; K-562, 0.391 umol, read-out: Toxicity %): 50.4% | viability at 0.781 µmol (K-562; K-562, 0.781 umol): 30.8% | cytotoxicity at 0.781 µmol (K-562; K-562, 0.781 umol, read-out: Toxicity %): 69.2% | viability at 1.563 µmol (K-562; K-562, 1.563 umol): 16.5% | cytotoxicity at 1.563 µmol (K-562; K-562, 1.563 umol, read-out: Toxicity %): 83.5% | viability at 3.125 µmol (K-562; K-562, 3.125 umol): 8.91% | cytotoxicity at 3.125 µmol (K-562; K-562, 3.125 umol, read-out: Toxicity %): 91.1% | viability at 6.25 µmol (K-562; K-562, 6.25 umol): 8.78% | cytotoxicity at 6.25 µmol (K-562; K-562, 6.25 umol, read-out: Toxicity %): 91.2% | viability at 12.5 µmol (K-562; K-562, 12.5 umol): 7.76% | cytotoxicity at 12.5 µmol (K-562; K-562, 12.5 umol, read-out: Toxicity %): 92.2% | viability at 25 µmol (K-562; K-562, 25 umol): 7.02% | cytotoxicity at 25 µmol (K-562; K-562, 25 umol, read-out: Toxicity %): 93% | IC50 (K-562; MTT, K-562, read-out: Cytotoxicity against cancer cells IC50 K-562): 385.8 ± 3.2 nM | viability at 0.195 µmol (MCF-7 [1]; MCF-7, 0.195 umol): 56.6% | cytotoxicity at 0.195 µmol (MCF-7 [1]; MCF-7, 0.195 umol, read-out: Toxicity %): 43.4% | viability at 0.391 µmol (MCF-7 [1]; MCF-7, 0.391 umol): 41.8% | cytotoxicity at 0.391 µmol (MCF-7 [1]; MCF-7, 0.391 umol, read-out: Toxicity %): 58.2% | viability at 0.781 µmol (MCF-7 [1]; MCF-7, 0.781 umol): 27.6% | cytotoxicity at 0.781 µmol (MCF-7 [1]; MCF-7, 0.781 umol, read-out: Toxicity %): 72.4% | viability at 1.563 µmol (MCF-7 [1]; MCF-7, 1.563 umol): 13.5% | cytotoxicity at 1.563 µmol (MCF-7 [1]; MCF-7, 1.563 umol, read-out: Toxicity %): 86.5% | viability at 3.125 µmol (MCF-7 [1]; MCF-7, 3.125 umol): 9.94% | cytotoxicity at 3.125 µmol (MCF-7 [1]; MCF-7, 3.125 umol, read-out: Toxicity %): 90.1% | viability at 6.25 µmol (MCF-7 [1]; MCF-7, 6.25 umol): 8.66% | cytotoxicity at 6.25 µmol (MCF-7 [1]; MCF-7, 6.25 umol, read-out: Toxicity %): 91.3% | viability at 12.5 µmol (MCF-7 [1]; MCF-7, 12.5 umol): 6.99% | cytotoxicity at 12.5 µmol (MCF-7 [1]; MCF-7, 12.5 umol, read-out: Toxicity %): 93% | viability at 25 µmol (MCF-7 [1]; MCF-7, 25 umol): 6.42% | cytotoxicity at 25 µmol (MCF-7 [1]; MCF-7, 25 umol, read-out: Toxicity %): 93.6% | IC50 (MCF-7 [1]; MTT, MCF-7, read-out: Cytotoxicity against cancer cells IC50 MCF-7): 282.4 ± 1.4 nM | viability at 0.195 µg/mL (HepG-2; HepG-2, 0.195 ug/ml): 45.9% | cytotoxicity at 0.195 µg/mL (HepG-2; HepG-2, 0.195 ug/ml, read-out: Toxicity %): 54.1% | viability at 0.391 µg/mL (HepG-2; HepG-2, 0.391 ug/ml): 29.7% | cytotoxicity at 0.391 µg/mL (HepG-2; HepG-2, 0.391 ug/ml, read-out: Toxicity %): 70.3% | viability at 0.781 µg/mL (HepG-2; HepG-2, 0.781 ug/ml): 21% | cytotoxicity at 0.781 µg/mL (HepG-2; HepG-2, 0.781 ug/ml, read-out: Toxicity %): 79% | viability at 1.563 µg/mL (HepG-2; HepG-2, 1.563 ug/ml): 12.7% | cytotoxicity at 1.563 µg/mL (HepG-2; HepG-2, 1.563 ug/ml, read-out: Toxicity %): 87.3% | viability at 3.125 µg/mL (HepG-2; HepG-2, 3.125 ug/ml): 9.56% | cytotoxicity at 3.125 µg/mL (HepG-2; HepG-2, 3.125 ug/ml, read-out: Toxicity %): 90.4% | viability at 6.25 µg/mL (HepG-2; HepG-2, 6.25 ug/ml): 6.96% | cytotoxicity at 6.25 µg/mL (HepG-2; HepG-2, 6.25 ug/ml, read-out: Toxicity %): 93% | viability at 12.5 µg/mL (HepG-2; HepG-2, 12.5 ug/ml): 6.04% | cytotoxicity at 12.5 µg/mL (HepG-2; HepG-2, 12.5 ug/ml, read-out: Toxicity %): 94% | viability at 25 µg/mL (HepG-2; HepG-2, 25 ug/ml): 5.71% | cytotoxicity at 25 µg/mL (HepG-2; HepG-2, 25 ug/ml, read-out: Toxicity %): 94.3% | IC50 (HepG-2; MTT, HepG-2, read-out: Cytotoxicity against cancer cells IC50 HepG-2): 187.1 ± 1.7 nM | TNF-alpha ±SE (TNF-alpha; HepG-2, at IC50 concentrations): 23.6 ± 1.35 ng/L | TNF-alpha ±SE (TNF-alpha; raw data, HepG2): 9.13 ng/L

SMILES: O=C(Nc1ccc(Oc2nc(Cl)nc3ccccc23)cc1)c1cccnc1 [VIII]
IC50 PC3 (PC3): 40.90 µg/mL (≈ 109 µM) | IC50 MCF-7 (MCF-7 [2]): 33.40 µg/mL (≈ 88.6 µM) | IC50 (VEGFR-2 kinase; read-out: VEGFR-2 inhibition IC50): 60 nM | IC50 HepG2 (HepG2): 24.10 µg/mL (≈ 64 µM)

SMILES: O=C(CSc1nc2ccc([N+](=O)[O-])cc2c(=O)n1-c1ccccc1)NNC(=O)c1ccccc1 [VII]
IC50 (WI-38): 146 µM | IC50 PC3 (PC3): 26.10 µg/mL (≈ 54.9 µM) | IC50 MCF-7 (MCF-7 [2]): 30.85 µg/mL (≈ 64.9 µM) | IC50 (VEGFR-2 kinase; read-out: IC50 against VEGFR-2 kinase): 4600 ± 60 nM | IC50 HepG2 (HepG2): 17.23 µg/mL (≈ 36.2 µM)
